# Laboratory results: ChEMBL document CHEMBL1139750, “Arylsulfonamides: a study of the relationship between activity and conformational preferences for a series of factor Xa inhibitors” (Bioorg Med Chem Lett, 2006)
# Target: Coagulation factor X (Homo sapiens, UniProt P00742)
# Assay: Binding affinity at factor 10a
# Coagulation factor X, sequence (P00742 41-179 limits assumed): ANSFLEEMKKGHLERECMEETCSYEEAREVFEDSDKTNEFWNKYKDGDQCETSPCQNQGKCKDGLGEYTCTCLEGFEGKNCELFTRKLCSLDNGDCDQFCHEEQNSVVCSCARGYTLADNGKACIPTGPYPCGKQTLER
# Coagulation factor X, sequence (P00742 235-488 limits assumed): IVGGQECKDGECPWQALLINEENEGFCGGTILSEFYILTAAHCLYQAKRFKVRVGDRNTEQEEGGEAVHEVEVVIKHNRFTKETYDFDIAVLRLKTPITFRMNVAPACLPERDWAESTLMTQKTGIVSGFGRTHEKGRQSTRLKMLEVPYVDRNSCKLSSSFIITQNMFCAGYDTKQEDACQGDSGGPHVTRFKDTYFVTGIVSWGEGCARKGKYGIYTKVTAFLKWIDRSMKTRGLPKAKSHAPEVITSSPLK
row,Structure (SMILES),Ki [nM]
1,C[C@@H](C(=O)N1CCOCC1)N1CC[C@H](NS(=O)(=O)c2nc3ccc(Cl)cc3s2)C1=O,4160
2,C[C@@H](C(=O)N1CCOCC1)N1CC[C@H](NS(=O)(=O)c2cc3ccc(Cl)cc3o2)C1=O,285
3,C[C@@H](C(=O)N1CCOCC1)N1CC[C@H](NS(=O)(=O)c2cc3ccc(Cl)cc3[nH]2)C1=O,170
4,C[C@@H](C(=O)N1CCOCC1)N1CC[C@H](NS(=O)(=O)c2cc3cc(Cl)ccc3o2)C1=O,782

# These reach a lower Ki. Values come first.
row,Ki [nM],Structure (SMILES)
1,112,C[C@@H](C(=O)N1CCOCC1)N1CC[C@H](NS(=O)(=O)c2nc3cc(Cl)ccc3s2)C1=O
2,90,C[C@@H](C(=O)N1CCOCC1)N1CC[C@H](NS(=O)(=O)c2cc3cc(Cl)ccc3[nH]2)C1=O
3,47,C[C@@H](C(=O)N1CCOCC1)N1CC[C@H](NS(=O)(=O)c2cc3cc(Cl)ccc3s2)C1=O
4,15,C[C@@H](C(=O)N1CCOCC1)N1CC[C@H](NS(=O)(=O)c2cc3ccc(Cl)cc3s2)C1=O
